Data from publication PMC8026324, “In Vitro Antiplasmodial, Heme Polymerization, and Cytotoxicity of Hydroxyxanthone Derivatives” (Journal of Tropical Medicine, 2021).

Columns and labels:
[1] = system: P. falciparum strain 3D-7; design: method as in doi:10.22159/ajpcr.2017.v10i12.19858; conditions: cited from earlier work; for IC50: read-out: antiplasmodial IC50 on P. falciparum strain 3D-7
Vero cells = assay: In vitro cytotoxicity test, MTT assay on Vero cell line; type: cell-based; conditions: for IC50: MTT assay; for Selectivity index 3D-7: ratio IC50 on Vero cell/IC50 on P. falciparum 3D-7; for Selectivity index FCR-3: ratio IC50 on Vero cell/IC50 on P. falciparum FCR-3
Procedure: The in vitro cytotoxicity test was conducted using the 3-(4,5-dimethylthiazol-2-yl)2,5-diphenyltetrazolium bromide (MTT) assay method on Vero cell line culture using the Anderson et al.'s modified method.
The cell was removed from the cryo medium. Then, the cell was thawed at 37°C. The liquid cell was subsequently transferred to the tube and a culture medium was added to a volume of 10 mL. Then, the suspension was centrifuged for 15 minutes so that it would form cell pellets. The supernatant was removed and 1 mL of culture medium was added to the cell pellets. Finally, the suspension was transferred to the Petri dish and incubated in the incubator with 5% of CO2 at 37°C.
The medium of Vero cell culture was removed, and then the cell was washed using a PBS solution with a volume of PBS ± 1/2 of the initial medium volume. This step was done twice and 1 mL of trypsin 0.25% was added. Subsequently, the cell was incubated in the CO2 incubator at 37°C for 3 minutes. Then, the cell was resuspended using 2 mL of culture medium and PBS solution was added up to 10 mL. The suspension was centrifuged for 15 minutes so that it formed pellets. Pellets were added with 1 mL of culture medium and resuspended. Take 10 μL of the cell suspension and density of cells was calculated.
Then, the cell was added with culture medium to 10 mL. A total of 100 μL of such suspensions was transferred into each well of the 96-well microplate, but three of the wells were emptied as medium controls. Subsequently, the microplate was incubated in a 5% CO2 incubator at 37°C.
Each hydroxyxanthone derivative compound was dissolved in DMSO, and a variety of concentrations were prepared in the medium. Each concentration of the testing compound was added into the 96-well microplate triplicately. Cell control and medium control were not given a testing compound solution. The medium control remained blank, while the cell control contained culture medium only. […] Then, the cell was incubated in a 5% CO2 incubator at 37°C for 24 hours.
After the cell was incubated for 24 hours, the medium was discarded and washed with PBS. Then, each well was added with 100 μL of 5 mg/mL of MTT solution. The 96-well microplate was incubated again in the incubator of CO2 at 37°C for 4 hours. Then, 100 μL of 10% of SDS in 0.01 MHCl was added. The cells were placed in a dark room at room temperature for 24 hours.
The absorbance was measured using the enzyme-linked immunosorbent assay (ELISA) reader at 595 nm wavelength. The cytotoxicity test on the Vero cells was done by calculating the percentage of Vero cell inhibition of the absorption value of the test compound, cell control, and medium control. The cytotoxic effect was expressed as IC50. The IC50 value was obtained from the probit analysis by using SPSS software (IBM Corp., Chicago). The degree of selectivity was expressed as a selectivity index. The selectivity index was obtained from the ratio between the IC50 cytotoxic effect on Vero cells and IC50 antiplasmodial activity on Plasmodium. A compound is said to be safe if the value of the selectivity index is >10 [20].

WIDR = system: WIDR; design: method as in earlier work; conditions: cited from earlier work
Hela = system: Hela; design: method as in earlier work; conditions: cited from earlier work
[2] = system: Plasmodium falciparum FCR-3 (chloroquine-resistant strain); assay: In vitro antiplasmodial activity assay, microscopic method, strain FCR-3; type: cell-based; conditions: for IC50: 72 hours incubation, microscopic method, read-out: IC50 on P. falciparum FCR-3; for antiplasmodial activity category on P. falciparum FCR-3: category by IC50
Procedure: (§1) The test of antiplasmodial activity began with the culture of P. falciparum 3D-7 and FCR-3 using the modified Trager and Jensen method. The plasmodium was cultured in human O red blood cells diluted to 3% haematocrit in RPMI 1640 medium complemented with 10% human O serum. The medium was made by adding 10.43 g of powder RPMI 1640, 6 g HEPES, 2 g NaHCO3, 25 mg gentamycin, and sterile distilled water up to 1 L. The medium pH was adjusted so that it reached ±7.2. It was sterilized using a 0.22 μm filter and stored at 4°C. The complete plasmodium culture medium was made by adding human serum with a concentration of 10% in the medium. The plasmodium culture was incubated in candle jar in an incubator with a temperature of 37°C and was observed every 24 hours.
(§2) The plasmodium was synchronized to obtain the ring stage by adding 5% of D-sorbitol. The plasmodium was transferred from culture flask to a conical tube, and then it was centrifuged with a speed of 1000 rpm for 10 minutes. After the supernatant was disposed, the sterile 5% sorbitol was added and incubated for 10 minutes at a temperature of 37°C. The plasmodium suspension was centrifuged again; the supernatant was disposed and the plasmodium was washed by adding culture medium. Then, the plasmodium suspension was centrifuged again, and the supernatant was discarded, resulting in a plasmodium in ring stage only. The parasitemia was calculated from a thin blood preparation. The test used 1% parasitemia at 2% haematocrit in RPMI medium which complemented with 10% human O serum.
(§3) Each testing compound was dissolved in RPMI medium. The testing compound in various concentrations with volume of 100 μL was incorporated into the 96-well microplate, and then 100 μL of Plasmodium suspension was added. Each series of concentrations was replicated three times. The microplate was incubated at a temperature of 37°C for 72 hours. At the end of the incubation, a thin blood smear was made using 10% Giemsa stain and observed under a light microscope at 1000x magnification. The percentage of parasitemia (counting a minimum of 1,000 erythrocytes) was calculated from the preparation of thin blood and then used to calculate the percentage of plasmodium growth inhibition. […] Antiplasmodial activity is expressed as IC50, which is the concentration of a compound that is required for 50% inhibition of plasmodium growth. The IC50 value was calculated by probit analysis using SPSS software (IBM Corp., Chicago). The lower the IC50 value obtained, the greater the antiplasmodial activity.

[3] = system: Plasmodium falciparum 3D-7 (chloroquine-sensitive strain); assay: In vitro antiplasmodial activity assay, microscopic method, strain 3D-7; type: cell-based; conditions: for IC50: 72 hours incubation, microscopic method, read-out: IC50 on P. falciparum 3D-7; for antiplasmodial activity category on P. falciparum 3D-7: category by IC50
Procedure: as §1, §2, §3

MCF-7 = system: MCF-7; design: method as in earlier work; conditions: cited from earlier work
heme polymerization = system: heme polymerization; design: method as in PMID 9199506; conditions: cited from earlier work
[4] = Chlorocebus sabaeus, Vero, 24 h, 24 hours incubation

## O=c1c2cc(O)ccc2oc2ccc(O)cc12 [2,7-dihydroxyxanthone]
[1]
  IC50: 1.34 µM

## O=c1c2ccccc2oc2ccc(O)cc12 [2-hydroxyxanthone]
[1]
  antiplasmodial IC50: 4.385 µg/mL
  IC50: 20.7 µM

## O=c1c2cccc(Cl)c2oc2cccc(O)c12 [HX4, 1-hydroxy-5-chloroxanthone]
Vero cells; 24 hours incubation
  IC50: 331 µM
Vero cells; [4]
  IC50: 335 µM
Vero cells; Chlorocebus sabaeus, Vero, 24 h, 63.25 μM, read-out: Vero cell growth inhibition after 24 hours incubation
  inhibition at 63.25 µM: 19%
Vero cells; Chlorocebus sabaeus, Vero, 24 h, 126.49 μM, read-out: Vero cell growth inhibition after 24 hours incubation
  inhibition at 126.49 µM: 32.5%
Vero cells; Chlorocebus sabaeus, Vero, 24 h, 253.39 μM, read-out: Vero cell growth inhibition after 24 hours incubation
  inhibition at 253.39 µM: 43.2%
Vero cells; Chlorocebus sabaeus, Vero, 24 h, 506.78 μM, read-out: Vero cell growth inhibition after 24 hours incubation
  inhibition at 506.78 µM: 54.4%
Vero cells; Chlorocebus sabaeus, Vero, 24 h, 1013.57 μM, read-out: Vero cell growth inhibition after 24 hours incubation
  inhibition at 1013.57 µM: 68.9%
Vero cells; Chlorocebus sabaeus, Vero, 24 h, 2027.14 μM, read-out: Vero cell growth inhibition after 24 hours incubation
  inhibition at 2027.14 µM: 90%
Vero cells; Chlorocebus sabaeus, Vero
  IC50: 82.6 µg/mL
Vero cells
  Selectivity index 3D-7: 3.88
  Selectivity index FCR-3: 3.68
WIDR
  cytotoxicity on WIDR (in words): weak
Hela
  cytotoxicity on Hela (in words): weak
[2]; Plasmodium falciparum, FCR3, 50.68 μM, read-out: Growth inhibition of P. falciparum Strain FCR-3
  inhibition at 50.68 µM: 47.4 ± 0.736%
[2]; Plasmodium falciparum, FCR3, 101.36 μM, read-out: Growth inhibition of P. falciparum Strain FCR-3
  inhibition at 101.36 µM: 49.8 ± 3.36%
[2]; Plasmodium falciparum, FCR3, 202.71 μM, read-out: Growth inhibition of P. falciparum Strain FCR-3
  inhibition at 202.71 µM: 56.4 ± 3.79%
[2]; Plasmodium falciparum, FCR3, 405.43 μM, read-out: Growth inhibition of P. falciparum Strain FCR-3
  inhibition at 405.43 µM: 61.2 ± 3.02%
[2]; Plasmodium falciparum, FCR3, 810.86 μM, read-out: Growth inhibition of P. falciparum Strain FCR-3
  inhibition at 810.86 µM: 72.9 ± 1.34%
[2]; Plasmodium falciparum, FCR3
  IC50: 89.9 ± 7.69 µM
[2]
  antiplasmodial activity category on P. falciparum FCR-3: moderate (moderate (IC50 20–100 μM))
[3]; Plasmodium falciparum, 50.68 μM, read-out: Growth inhibition of P. falciparum Strain 3D-7
  inhibition at 50.68 µM: 46.5 ± 0.8%
[3]; Plasmodium falciparum, 101.36 μM, read-out: Growth inhibition of P. falciparum Strain 3D-7
  inhibition at 101.36 µM: 50.96 ± 0.361%
[3]; Plasmodium falciparum, 202.71 μM, read-out: Growth inhibition of P. falciparum Strain 3D-7
  inhibition at 202.71 µM: 57.1 ± 1.57%
[3]; Plasmodium falciparum, 405.43 μM, read-out: Growth inhibition of P. falciparum Strain 3D-7
  inhibition at 405.43 µM: 64.51 ± 0.418%
[3]; Plasmodium falciparum, 810.86 μM, read-out: Growth inhibition of P. falciparum Strain 3D-7
  inhibition at 810.86 µM: 74 ± 0.923%
[3]; Plasmodium falciparum
  IC50: 85.3 ± 4.87 µM
[3]
  antiplasmodial activity category on P. falciparum 3D-7: moderate (moderate (IC50 20–100 μM))
MCF-7
  cytotoxicity on MCF-7 (in words): weak

## Cc1c(O)ccc2c(=O)c3c(O)cccc3oc12 [HX5, 1,6-dihydroxy-5-methylxanthone]
Vero cells; 24 hours incubation
  IC50: 418 µM
Vero cells; [4]
  IC50: 459 µM
Vero cells; Chlorocebus sabaeus, Vero, 24 h, 64.40 μM, read-out: Vero cell growth inhibition after 24 hours incubation
  inhibition at 64.4 µM: -5.19%
Vero cells; Chlorocebus sabaeus, Vero, 24 h, 128.80 μM, read-out: Vero cell growth inhibition after 24 hours incubation
  inhibition at 128.8 µM: 27.9%
Vero cells; Chlorocebus sabaeus, Vero, 24 h, 258.01 μM, read-out: Vero cell growth inhibition after 24 hours incubation
  inhibition at 258.01 µM: 37.8%
Vero cells; Chlorocebus sabaeus, Vero, 24 h, 516.02 μM, read-out: Vero cell growth inhibition after 24 hours incubation
  inhibition at 516.02 µM: 48.3%
Vero cells; Chlorocebus sabaeus, Vero, 24 h, 1032.03 μM, read-out: Vero cell growth inhibition after 24 hours incubation
  inhibition at 1032.03 µM: 68.1%
Vero cells; Chlorocebus sabaeus, Vero, 24 h, 2064.07 μM, read-out: Vero cell growth inhibition after 24 hours incubation
  inhibition at 2064.07 µM: 88.8%
Vero cells; Chlorocebus sabaeus, Vero
  IC50: 111 µg/mL
Vero cells
  Selectivity index 3D-7: 8.94
  Selectivity index FCR-3: 6.99
WIDR
  cytotoxicity on WIDR (in words): weak
Hela
  cytotoxicity on Hela (in words): weak
[2]; Plasmodium falciparum, FCR3, 20.64 μM, read-out: Growth inhibition of P. falciparum Strain FCR-3
  inhibition at 20.64 µM: 33.63 ± 0.327%
[2]; Plasmodium falciparum, FCR3, 41.28 μM, read-out: Growth inhibition of P. falciparum Strain FCR-3
  inhibition at 41.28 µM: 41.14 ± 0.396%
[2]; Plasmodium falciparum, FCR3, 82.56 μM, read-out: Growth inhibition of P. falciparum Strain FCR-3
  inhibition at 82.56 µM: 46.5 ± 0.816%
[2]; Plasmodium falciparum, FCR3, 165.13 μM, read-out: Growth inhibition of P. falciparum Strain FCR-3
  inhibition at 165.13 µM: 73.5 ± 1.6%
[2]; Plasmodium falciparum, FCR3, 330.25 μM, read-out: Growth inhibition of P. falciparum Strain FCR-3
  inhibition at 330.25 µM: 84.7 ± 0.902%
[2]; Plasmodium falciparum, FCR3
  IC50: 59.7 ± 0.78 µM
[2]
  antiplasmodial activity category on P. falciparum FCR-3: moderate (moderate (IC50 20–100 μM))
[3]; Plasmodium falciparum, 20.64 μM, read-out: Growth inhibition of P. falciparum Strain 3D-7
  inhibition at 20.64 µM: 37.9 ± 0.441%
[3]; Plasmodium falciparum, 41.28 μM, read-out: Growth inhibition of P. falciparum Strain 3D-7
  inhibition at 41.28 µM: 45 ± 0.563%
[3]; Plasmodium falciparum, 82.56 μM, read-out: Growth inhibition of P. falciparum Strain 3D-7
  inhibition at 82.56 µM: 54.2 ± 1.57%
[3]; Plasmodium falciparum, 165.13 μM, read-out: Growth inhibition of P. falciparum Strain 3D-7
  inhibition at 165.13 µM: 75.4 ± 1.29%
[3]; Plasmodium falciparum, 330.25 μM, read-out: Growth inhibition of P. falciparum Strain 3D-7
  inhibition at 330.25 µM: 93.3 ± 0.956%
[3]; Plasmodium falciparum
  IC50: 46.69 ± 0.29 µM
[3]
  antiplasmodial activity category on P. falciparum 3D-7: moderate (moderate (IC50 20–100 μM))
MCF-7
  cytotoxicity on MCF-7 (in words): weak

## pentaacetylxanthone
Heme polymerization
  heme polymerization inhibitory activity (in words): inactive

## pentametoxyxanthone
Heme polymerization
  heme polymerization inhibitory activity (in words): inactive
